Patent publication US20110065788A1, “AQUEOUS FORMULATIONS OF (2-HYDROXYMETHYL-INDANYL-4-OXY)-PHENYL-4,4,4-TRIFLUOROBUTANE-1-SULFONATE” (BAYER SCHERING PHARMA AKTIENGESELLSCHAFT, priority 2002, published 2011)
Converted amounts (≈) assume the structure as drawn.

Assay: solubility in water
Format: physicochemical
Conditions: 25° C.

In the case of `O=S(=O)(CCCC(F)(F)F)Oc1cccc(Oc2cccc3c2C[C@H](CO)C3)c1` [Compound (I), (−)-(R)-3-(2-Hydroxymethylindanyl-4-oxy)phenyl 4,4,4-trifluorobutane-1-sulfonate], the solubility is reported as 2 µg/mL (≈ 4.65 µM).
